Source: US5187082A, “Process for producing A83850 antibiotics” (Eli Lilly and Company, priority 1990, dated 1993)
Values after ≈ are worked out from the molar mass of the structure shown.

Experiments:
[1] = tested on: Bacteriodes thetaiotaomicron; test: Activity against anaerobic bacteria, agar-dilution MIC; settings: Bacteriodes thetaiotaomicron; anaerobe, agar dilution, read after 24-hour incubation
Bacteroides corrodens = test: as above; assay type: cell-based; settings: Bacteroides corrodens; anaerobe, agar dilution, read after 24-hour incubation
Bacteriodes fragilis = test: as above; assay type: cell-based; settings: Bacteriodes fragilis; anaerobe, agar dilution, read after 24-hour incubation
Bacteriodes vulgatis = test: as above; settings: Bacteriodes vulgatis; anaerobe, agar dilution, read after 24-hour incubation
[2] = tested on: Peptostreptococcus anaerobius; test: as above; assay type: cell-based; settings: anaerobe, agar dilution, read after 24-hour incubation
Staphylococcus aureus = test: In vivo activity against experimentally-induced infection in mice; settings: doses administered subcutaneously to mice 1 and 4 hours postinfection
Experimental: (§1) The A83850 antibiotics have also shown in vivo antimicrobial activity against experimentally-induced infections in laboratory animals. When two doses of test compound were administered to mice experimentally infected with the test organism, the activity observed was measured as an ED50 value [effective dose in mg/kg to protect 50% of the test animals: see Warren Wick, et al., J. Bacteriol. 81, 233-235 (1961)].
(§2) ^a mg/kg × 2; doses administered subcutaneously to mice 1 and 4

Streptococcus pneumoniae = test: as above; settings: doses administered subcutaneously to mice 1 and 4 hours postinfection
Experimental: as §1, §2

Streptococcus pyogenes = test: as above; settings: doses administered subcutaneously to mice 1 and 4 hours postinfection
Experimental: as §1, §2

[3] = tested on: Peptostreptococcus intermedius; test: Activity against anaerobic bacteria, agar-dilution MIC; assay type: cell-based; settings: Peptostreptococcus intermedius; anaerobe, agar dilution, read after 24-hour incubation
Clostridium perfringens = settings: anaerobe, agar dilution, read after 24-hour incubation
[4] = tested on: Streptococcus pneumoniae Park 1; test: microbe, parasite or virus in culture; assay type: cell-based; settings: Streptococcus pneumoniae Park 1; agar dilution
Experimental: (§3) The MIC's in Table VII were determined by standard agar-dilution assays.

Fusobacterium symbiosum = settings: anaerobe, agar dilution, read after 24-hour incubation
Clostridium difficile = test: Activity against anaerobic bacteria, agar-dilution MIC; settings: Clostridium difficile; anaerobe, agar dilution, read after 24-hour incubation
[5] = tested on: Bacteriodes melaninogenicus; test: as above; assay type: cell-based; settings: Bacteriodes melaninogenicus; anaerobe, agar dilution, read after 24-hour incubation
Peptococcus prevoti = test: as above; settings: Peptococcus prevoti; anaerobe, agar dilution, read after 24-hour incubation
Propionibacterium acnes = test: as above; assay type: cell-based; settings: Propionibacterium acnes; anaerobe, agar dilution, read after 24-hour incubation
Clostridium septicum = settings: anaerobe, agar dilution, read after 24-hour incubation
[6] = tested on: Fusobacterium necrophorum; settings: anaerobe, agar dilution, read after 24-hour incubation
Eubacterium aerofaciens = settings: anaerobe, agar dilution, read after 24-hour incubation
[7] = tested on: Peptococcus asaccharolyticus; test: Activity against anaerobic bacteria, agar-dilution MIC; settings: Peptococcus asaccharolyticus; anaerobe, agar dilution, read after 24-hour incubation
[8] = tested on: Staphylococcus aureus X400; assay type: cell-based; settings: Staphylococcus aureus X400; agar dilution
Experimental: as §3

[9] = tested on: Streptococcus pyogenes C203; assay type: cell-based; settings: Streptococcus pyogenes C203; agar dilution
Experimental: as §3

[10] = tested on: Staphylococcus aureus V41; assay type: cell-based; settings: Staphylococcus aureus V41; agar dilution
Experimental: as §3

[11] = tested on: Staphylococcus epidermidis 222; assay type: cell-based; settings: Staphylococcus epidermidis 222; agar dilution
Experimental: as §3

[12] = tested on: Enterococcus faecalis 2041; assay type: cell-based; settings: Enterococcus faecalis 2041; agar dilution
Experimental: as §3

[13] = tested on: Staphylococcus epidermidis 270; assay type: cell-based; settings: Staphylococcus epidermidis 270; agar dilution
Experimental: as §3

Enterococcus faecium X66 = assay type: cell-based; settings: Enterococcus faecium X66; agar dilution
Experimental: as §3

[14] = tested on: Staphylococcus aureus X1.1; assay type: cell-based; settings: Staphylococcus aureus X1.1; agar dilution
Experimental: as §3

| SMILES | MIC [1] | MIC (Bacteroides corrodens) | MIC (Bacteriodes fragilis) | MIC (Bacteriodes vulgatis) | MIC [2] | ED50 Value (Staphylococcus aureus) | ED50 Value (Streptococcus pneumoniae) | ED50 Value (Streptococcus pyogenes) | MIC [3] | MIC (Clostridium perfringens) | MIC [4] | MIC (Fusobacterium symbiosum) | MIC (Clostridium difficile) | MIC [5] | MIC (Peptococcus prevoti) | MIC (Propionibacterium acnes) | MIC (Clostridium septicum) | MIC [6] | MIC (Eubacterium aerofaciens) | MIC [7] | other results |
| --- | --- | --- | --- | --- | --- | --- | --- | --- | --- | --- | --- | --- | --- | --- | --- | --- | --- | --- | --- | --- | --- |
| CC(C)C[C@H](C(=O)N[C@H]1C(=O)N[C@@H](CC(N)=O)C(=O)N[C@H]2C(=O)N[C@H]3C(=O)N[C@H](C(=O)N[C@H](C(=O)O)c4cc(O)cc(O)c4-c4cc3ccc4O)[C@H](O)c3ccc(c(Cl)c3)Oc3cc2cc(c3O[C@@H]2O[C@H](CO)[C@@H](O)[C@H](O)[C@H]2O[C@H]2C[C@](C)(N)C(=O)[C@H](C)O2)Oc2ccc(cc2Cl)[C@H]1O)N(C)C [A83850A] | 64 µg/mL (≈ 43.8 µM) | 32 µg/mL (≈ 21.9 µM) | 16.0 to 32.0 µg/mL | 16 µg/mL (≈ 10.9 µM) | 32 µg/mL (≈ 21.9 µM) | 2.87 mg/kg × 2 | 2.73 mg/kg × 2 | 3.62 mg/kg × 2 | 2.0 µg/mL (≈ 1.37 µM) | 2 µg/mL (≈ 1.37 µM) | 1.0 µg/mL (≈ 0.684 µM) | 4 µg/mL (≈ 2.74 µM) | 4 µg/mL (≈ 2.74 µM) | 16 µg/mL (≈ 10.9 µM) | 16 µg/mL (≈ 10.9 µM) | 8.0 µg/mL (≈ 5.47 µM) | 2 µg/mL (≈ 1.37 µM) | 1.0 µg/mL (≈ 0.684 µM) | 2 µg/mL (≈ 1.37 µM) | 16 µg/mL (≈ 10.9 µM) | MIC [8]: 2.0 µg/mL (≈ 1.37 µM); MIC [9]: 1.0 µg/mL (≈ 0.684 µM); MIC [10]: 2.0 µg/mL (≈ 1.37 µM); MIC [11]: 2.0 µg/mL (≈ 1.37 µM); MIC [12]: 8.0 µg/mL (≈ 5.47 µM); MIC [13]: 4.0 µg/mL (≈ 2.74 µM); MIC (Enterococcus faecium X66): 2.0 µg/mL (≈ 1.37 µM); MIC [14]: 1.0 µg/mL (≈ 0.684 µM) |
| CN[C@H](CC(C)C)C(=O)N[C@H]1C(=O)N[C@@H](CC(N)=O)C(=O)N[C@H]2C(=O)N[C@H]3C(=O)N[C@H](C(=O)N[C@H](C(=O)O)c4cc(O)cc(O)c4-c4cc3ccc4O)[C@H](O)c3ccc(c(Cl)c3)Oc3cc2cc(c3O[C@@H]2O[C@H](CO)[C@@H](O)[C@H](O)[C@H]2O[C@H]2C[C@](C)(N)C(=O)[C@H](C)O2)Oc2ccc(cc2Cl)[C@H]1O [A83850B] | 64 µg/mL (≈ 44.2 µM) | 32 µg/mL (≈ 22.1 µM) | 16.0 to 32.0 µg/mL | 16 µg/mL (≈ 11.1 µM) | 16 µg/mL (≈ 11.1 µM) | 2.87 mg/kg × 2 | 0.98 mg/kg × 2 | 2.19 mg/kg × 2 | 2.0 µg/mL (≈ 1.38 µM) | 2 µg/mL (≈ 1.38 µM) | 0.125 µg/mL (≈ 0.0864 µM) | 2 µg/mL (≈ 1.38 µM) | 2 µg/mL (≈ 1.38 µM) | 32 µg/mL (≈ 22.1 µM) | 2 µg/mL (≈ 1.38 µM) | 8.0 µg/mL (≈ 5.53 µM) | 1.0 µg/mL (≈ 0.691 µM) | 1.0 µg/mL (≈ 0.691 µM) | 2 µg/mL (≈ 1.38 µM) | 2 µg/mL (≈ 1.38 µM) | MIC [8]: 1.0 µg/mL (≈ 0.691 µM); MIC [9]: 0.5 µg/mL (≈ 0.345 µM); MIC [10]: 1.0 µg/mL (≈ 0.691 µM); MIC [11]: 1.0 µg/mL (≈ 0.691 µM); MIC [12]: 4.0 µg/mL (≈ 2.76 µM); MIC [13]: 1.0 µg/mL (≈ 0.691 µM); MIC (Enterococcus faecium X66): 1.0 µg/mL (≈ 0.691 µM); MIC [14]: 0.5 µg/mL (≈ 0.345 µM) |
